Laboratory results reported in patent US6696498B2, “2-cyclopenten-1-one and its derivatives as inhibitors of the NF-kB factor” (Consiglio Nazionale Della Richerche, priority 1996, dated 2004).

Columns and labels:
[1] = target: T1, NF-kB (Homo sapiens, UniProt P19838+Q04206); experiment: NF-kB activation after other types of stimulation (tumor necrosis factor alpha or viral infection) in different human cells; assay type: cell-based; details: stimulation by tumor necrosis factor alpha or viral infection, data not shown
T1 construct: endogenous in cells; host or cells: Jurkat (human T lymphoid cell line)
Text: (§1) Inhibition tests have been carried out in type T lymphoid human cells (Jurkat cell line), as well as in other human cell lines. NF-kB activation was stimulated with 12-o-tetradecanoyl-phorbol-13-acetate (TPA). 2-Cyclopenten-1-one was also effective in inhibiting NF-kB activation after other types of stimulation, including stimulation by tumor necrosis factor alpha or viral infection, and in different types of human cells (data not shown).

[2] = tested on: HSF (Heat Shock Transcription Factor); experiment: HSF activation in TPA-stimulated Jurkat cells, EMSA of whole-cell extracts; assay type: cell-based, human; details: then TPA 25 ng/ml, extracts after 3 hours; for activation of HSF (specificity): 500 uM for 1 hour, FIG. 1D
Procedure: (§2) The cells were prepared according to the method described in C. Amici et al. (Cancer Research 55, 4452-4457, 1995).
(§3) The cells were treated with 2-cyclopenten-1-one at different concentrations (125-1000 μM) for 1 hour and then were stimulated with TPA (25 ng/ml).
(§4) After 3 hours the whole-cell extracts were prepared and subjected to EMSA (Electrophoretic Mobility Shift Assay) as described for NF-kB in U. Zabel et al. (J. Biol. Chem. 266: 242, 1991) and HSF in C. Amici et al. (Cancer Res. 55: 4452, 1995), to determine NF-kB and HSF activation respectively.
The positions of the complex HSF-DNA (HSF), the HSF-DNA constitutive activity (CHBA) and the proteins-DNA non-specific interactions (ns) are indicated in FIG. 1B. The line “econtrol” indicates the non-TPA-stimulated cells as a control of non-activated NF-kB.
(§5) The cells were treated for 1 hour with the same concentration (500 uM) of: 2-cyclopenten-1-one, cyclopentanone or cyclopentene, and then were stimulated with TPA (25 ng/ml). C represents the non-TPA-stimulated control. After 3 hours the whole-cell extracts were prepared and subjected to EMSA to verify the activation of NF-kB (FIG. 1C) and of HSF (FIG. 1D) respectively.

[3] = target: T1, NF-kB; experiment: TPA-induced NF-kB activation in Jurkat cells, EMSA of whole-cell extracts; assay type: cell-based; details: then TPA 25 ng/ml, extracts after 3 hours; for inhibition of TPA-induced NF-kB activation (specificity): 500 uM for 1 hour, FIG. 1C
Text: as §1
The effect of the treatment with 2-cyclopenten-1-one on NF-kB activation by TPA has been tested in Jurkat cells by using the procedures described hereinbelow and shown in FIG. 1.
as §2, §3, §4, §5

T1 sequence (P19838 1-433 limits assumed): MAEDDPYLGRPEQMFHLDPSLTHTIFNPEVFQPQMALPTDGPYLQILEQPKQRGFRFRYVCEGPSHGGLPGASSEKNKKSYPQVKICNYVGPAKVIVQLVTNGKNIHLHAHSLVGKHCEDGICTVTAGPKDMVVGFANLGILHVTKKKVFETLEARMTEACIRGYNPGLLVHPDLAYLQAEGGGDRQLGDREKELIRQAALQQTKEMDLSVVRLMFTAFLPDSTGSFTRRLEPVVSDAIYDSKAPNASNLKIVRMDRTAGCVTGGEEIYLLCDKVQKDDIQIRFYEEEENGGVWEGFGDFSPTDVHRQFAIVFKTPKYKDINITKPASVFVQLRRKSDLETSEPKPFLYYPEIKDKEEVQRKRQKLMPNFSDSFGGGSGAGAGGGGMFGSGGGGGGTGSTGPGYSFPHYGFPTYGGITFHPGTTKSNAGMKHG
T1 sequence (Q04206 whole entry): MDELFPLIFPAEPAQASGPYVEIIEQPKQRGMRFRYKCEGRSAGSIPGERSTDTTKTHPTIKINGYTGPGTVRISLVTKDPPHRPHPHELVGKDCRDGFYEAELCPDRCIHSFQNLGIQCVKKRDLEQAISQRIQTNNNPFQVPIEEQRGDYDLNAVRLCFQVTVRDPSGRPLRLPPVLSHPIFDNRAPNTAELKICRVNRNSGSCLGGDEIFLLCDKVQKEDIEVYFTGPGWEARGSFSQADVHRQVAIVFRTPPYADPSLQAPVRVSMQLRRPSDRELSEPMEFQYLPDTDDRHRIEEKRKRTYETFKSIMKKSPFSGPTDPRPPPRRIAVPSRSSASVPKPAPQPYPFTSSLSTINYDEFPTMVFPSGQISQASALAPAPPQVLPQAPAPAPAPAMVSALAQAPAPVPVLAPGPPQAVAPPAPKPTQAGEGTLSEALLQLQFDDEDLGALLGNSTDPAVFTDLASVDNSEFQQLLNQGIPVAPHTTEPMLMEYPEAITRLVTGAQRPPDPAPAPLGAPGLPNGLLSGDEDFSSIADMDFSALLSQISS

Structure (SMILES) | inhibition of NF-kB activation after other types of stimulation [1] | concentration from which activation of HSF is evident ([2]; 125-1000 μM for 1 hour, FIG. 1B) [µM] | inhibition of NF-kB activation by TPA ([3]; 125 uM for 1 hour, FIG. 1A) | inhibition of TPA-induced NF-kB activation (specificity) [3] | NF-kB band (NF-kB-DNA complex) in EMSA ([3]; 500 um for 1 hour, FIG. 1A) | activation of HSF (specificity) [2]
O=C1C=CCC1 [2-cyclopenten-1-one] | effective | ≥ 125 | able to inhibit | inhibits | absent | 
O=C1CCCC1 [cyclopentanone, reference compound] |  |  |  | do not inhibit |  | do not activate
C1=CCCC1 [cyclopentene, reference compound] |  |  |  | do not inhibit |  | do not activate
